Assay results: patent publication US6930203B2, “Gelling agents or thickeners” (Applied NanoSystems B.V., priority 2001, dated 2005)

Assay: Solvent scope of N,N′-dialkylaldaramides (1%) or N,N′-dialkylpentaramides (1%): gelation/solubility behaviour in solvents
Assay type: physicochemical
Parameters: key: g = gelation; s = soluble; p = precipitates; c = crystallizes; ns = not soluble; v = viscous; g* = unstable gel, precipitates; cg = crystalline gel
Details: 1% gelling agent
Source text: It will be understood that the use of the present gelling agents or thickeners to prepare a gel or to thicken a composition is also encompassed by the invention. As is well known, gelling behavior of compounds or compositions is highly unpredictable. […] Preferably, the gelling phenomenon is thermo reversible.
Preferred examples include aromatic and nonaromatic hydrocarbons, alcohols, ethers, esters, aldehydes, alkanoic acids, epoxides, amines, halogenated hydrocarbons, silicon oils, vegetable oils, phosphoric esters, sulfoxides, water and mixtures thereof. In order to obtain a gel, the gelling agent or thickener is preferably mixed with the composition to be transformed to a gel in an amount of between 0.01 and 50 wt. %, based on the weight of the composition. In a preferred embodiment, the mixture of the gelling agent or thickener and the composition is heated to allow for an even better gel formation or thickening. Typically, the heating will involve raising the temperature of the mixture to about 30-175° C. until a clear solution is obtained. In an alternative embodiment, the gelling agent is first dissolved in a polar or apolar solvent and then added to or sprayed into a composition or solvent to be converted into a gel.
Solvent scope of N,N′-dialkylaldaramides (1%) or N,N′-dialkylpentaramides (1%) 1-24 refers to the compounds prepared in Examples 1-23)

| Compound | Gelation/solubility behaviour in 1,2-dichloroethane | Gelation/solubility behaviour in 2-octanol | Gelation/solubility behaviour in 2-propanol | Gelation/solubility behaviour in Cyclohexane | Gelation/solubility behaviour in Dimethylsulfoxide | Gelation/solubility behaviour in Ethanol | Gelation/solubility behaviour in Hexadecane | Gelation/solubility behaviour in Toluene | Gelation/solubility behaviour in Water | Gelation/solubility behaviour in n-butylacetate | Gelation/solubility behaviour in p-xylene | Gelation/solubility behaviour in methyl benzoic acid | Gelation/solubility behaviour in silicon oil | Gelation/solubility behaviour in 2-methoxyethanol (2-methoxyethanol) | Gelation/solubility behaviour in methyl laurate (methyl laurate) |
| --- | --- | --- | --- | --- | --- | --- | --- | --- | --- | --- | --- | --- | --- | --- | --- |
| CCCCNC(=O)[C@@H](O)[C@H](O)[C@H](O)[C@@H](O)C(=O)NCCCC [Example 3, dibutyl galactaramide] | ns | ns | c | ns | s | c | ns | ns | ns | ns | ns | – | – | – | – |
| CCCCCCCCNC(=O)[C@@H](O)[C@@H](O)[C@H](O)[C@H](O)C(=O)NCCCCCCCC [Example 9, dioctyl D-mannaramide] | ns | ns | c | ns | c | c | ns | ns | ns | ns | ns | – | – | – | – |
| CCCCCCCCCCCCNC(=O)[C@@H](O)[C@@H](O)[C@H](OC)[C@@H](O)C(=O)NCCCCCCCCCCCC [Example 21, 3-O-methyl-didodecyl D-glucaramide] | p | c | p | g | p | p | p | p | ns | c | p | p | v | – | – |
| O=C(NC1CCCCCCCCCCC1)[C@@H](O)[C@@H](O)[C@H](O)[C@H](O)C(=O)NC1CCCCCCCCCCC1 [Example 16, dicyclododecyl D-mannaramide] | c | s | cg | ns | p | p | ns | ns | ns | ns | ns | – | – | – | – |
| CCCCNC(=O)[C@@H](O)[C@@H](O)[C@H](O)[C@@H](O)C(=O)NCCCC [Example 1, dibutyl D-glucaramicle] | ns | – | – | ns | – | – | ns | ns | ns | ns | ns | – | – | – | – |
| CCCCCCCCNC(=O)[C@@H](O)[C@H](O)[C@H](O)[C@@H](O)C(=O)NCCCCCCCC [Example 10, dioctyl galactaramide] | ns | ns | ns | ns | s | c | ns | ns | ns | ns | ns | – | – | – | – |
| CCCCCCCCCCCCNC(=O)[C@@H](O)[C@@H](O)[C@H](O)[C@H](O)C(=O)NCCCCCCCCCCCC [Example 13, didodecyl D-mannaramide] | c | p | c | ns | c | ns | ns | ns | ns | ns | ns | – | – | – | – |
| CCCCCCCC/C=C\CCCCCCCCNC(=O)[C@@H](O)[C@@H](O)[C@H](O)[C@@H](O)C(=O)NCCCCCCCC/C=C\CCCCCCCC [Example 19, dioleyl D-glucaramide] | c | c | c | p | c | c | p | p | ns | c | p | – | – | – | – |
| CCCCNC(=O)[C@@H](O)[C@@H](O)[C@H](O)[C@H](O)C(=O)NCCCC [Example 2, dibutyl D-mannaramide] | Ns | Ns | – | Ns | – | – | Ns | Ns | Ns | Ns | Ns | – | – | – | – |
| CCCCCCCCNC(=O)[C@@H](O)[C@@H](O)[C@H](O)[C@@H](O)C(=O)NCCCCCCCC [Example 8, dioctyl D-glucaramide] | ns | ns | c | ns | s | c | ns | ns | ns | ns | ns | – | – | – | – |
| O=C(NC1CCCCC1)[C@@H](O)[C@@H](O)[C@H](O)[C@@H](O)C(=O)NC1CCCCCCCCCCC1 [Example 23, N1-cyclododecyl, N6-cyclohexyl D-glucaramide] | – | – | – | p | – | – | – | – | – | p | p | p | v | p | p |
| CO[C@@H]([C@H](O)[C@H](O)C(=O)NC1CCCCC1)[C@@H](O)C(=O)NC1CCCCC1 [Example 20, 3-O-methyl-dicyclohexyl D-glucaramide] | c | p | c | ns | s | c | ns | p | ns | p | p | – | – | – | – |
| dicyclohexyl galactaramide [Example 7] | ns | ns | c | ns | c | c | ns | ns | ns | ns | ns | – | – | – | – |
| O=C(NC1CCCCC1)[C@@H](O)[C@@H](O)[C@@H](O)C(=O)NC1CCCCC1 [Example 4, dicyclohexyl D-ribaramide] | s | p | p | ns | s | s | ns | p | ns | p | p | – | – | – | – |
| CO[C@@H]([C@H](O)[C@H](O)C(=O)NC1CCCCCCCCCCC1)[C@@H](O)C(=O)NC1CCCCCCCCCCC1 [Example 22, 3-O-methyl-dicyclododecyl D-glucaramide] | p | p | p | g | p | p | ns | p | – | p | p | – | – | – | – |
